Experimental data: PMC8963254, “Effects of Lysine N-ζ-Methylation in Ultrashort Tetrabasic Lipopeptides (UTBLPs) on the Potentiation of Rifampicin, Novobiocin, and Niclosamide in Gram-Negative Bacteria” (Antibiotics, 2022)
Converted amounts (≈) assume the structure as drawn. Read-outs that look alike come from different tables or passages of the source.

Assays:
[1] = test system: MRSE 61589; type: cell-based, Staphylococcus epidermidis
In short: (§1)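 Values derive from a two-agent checkerboard with an 18 h, 37 °C incubation. FICI cut-offs: ≤0.5 synergy, 0.5–4 additive, >4 antagonism.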

[2] = test system: MSSE 81388; type: cell-based, Staphylococcus epidermidis
In short: as §1

[3] = test system: A. baumannii ATCC 17978; type: cell-based, Acinetobacter baumannii; conditions: ATCC 17978, 18 h
In short: (§2)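 MIC was determined by broth microdilution following CLSI guidelines. Serially varied compound concentrations were incubated with bacterial inoculum at 5 × 10^5 CFU/mL (final) for 18 h at 37 °C. Growth was scored as turbidity by absorbance at 590 nm.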

[4] = test system: E. coli ATCC 25922; type: cell-based, Escherichia coli; conditions: for MICUTBLP: UTBLP alone
In short: as §1

[5] = test system: P. aeruginosa PAO1; type: cell-based, Pseudomonas aeruginosa; conditions: PAO1, 18 h
In short: as §2

[6] = test system: E. cloacae 118564; assay: microbe, parasite or virus in culture; type: cell-based, Enterobacter cloacae; conditions: 118564, 18 h
In short: as §2

[7] = test system: A. baumannii AB92247; assay: microbe, parasite or virus in culture; type: cell-based, Acinetobacter baumannii; conditions: AB92247, 18 h
In short: as §2

[8] = test system: A. baumannii AB027; assay: microbe, parasite or virus in culture; type: cell-based, Acinetobacter baumannii; conditions: AB027, 18 h
In short: as §2

[9] = test system: A. baumannii 92247; type: cell-based, Acinetobacter baumannii; conditions: for MICUTBLP: UTBLP alone
In short: as §1

[10] = test system: A. baumannii ATCC 17978; type: cell-based, Acinetobacter baumannii; conditions: for MICUTBLP: UTBLP alone
In short: as §1

[11] = test system: A. baumannii AB027; type: cell-based, Acinetobacter baumannii; conditions: for MICUTBLP: UTBLP alone
In short: as §1

[12] = test system: E. coli ATCC 25922; type: cell-based, Escherichia coli; conditions: ATCC 25922, 18 h
In short: as §2

[13] = test system: E. coli 94393; assay: microbe, parasite or virus in culture; type: cell-based, Escherichia coli; conditions: 94393, 18 h
In short: as §2

[14] = test system: E. coli 94474; assay: microbe, parasite or virus in culture; type: cell-based, Escherichia coli; conditions: 94474, 18 h
In short: as §2

[15] = test system: MRSA ATCC 33592; type: cell-based, Staphylococcus aureus
In short: as §1

[16] = test system: S. aureus ATCC 29213; type: cell-based, Staphylococcus aureus
In short: as §1

[17] = UTBLP alone, plate with chloramphenicol
[18] = UTBLP in combination with chloramphenicol
[19] = chloramphenicol in combination with the UTBLP
[20] = UTBLP in combination with niclosamide
[21] = UTBLP in combination with novobiocin
[22] = UTBLP in combination with rifampicin
[23] = niclosamide in combination with the UTBLP
[24] = novobiocin in combination with the UTBLP
[25] = rifampicin in combination with the UTBLP

## CCCCCCCC(=O)N[C@@H](CCCCN)C(=O)NCCCN(CCCNC(=O)[C@H](CCCCN)NC(=O)CCCCCCC)CC(=O)N[C@@H](CCCCN)C(N)=O [UTBLP 1]
[1]; UTBLP + chloramphenicol
  Interpretation: Additive (0.5 < x ≤ 4 is additive)
[1]; [17]
  MICUTBLP: 32 µg/mL
[1]; [18]
  MICUTBLP [MICcombo]: 16 µg/mL
[1]; [19]
  MICchloramphenicol [MICcombo]: 2 µg/mL
[2]; UTBLP + chloramphenicol
  Interpretation: Additive (0.5 < x ≤ 4 is additive)
[2]; [17]
  MICUTBLP: 32 µg/mL
[2]; [18]
  MICUTBLP [MICcombo]: 0.25 µg/mL
[2]; [19]
  MICchloramphenicol [MICcombo]: 4 µg/mL
[3]
  MIC: >128 µg/mL
[4]; UTBLP + chloramphenicol
  Interpretation: Synergy (FICI ≤ 0.5 is synergistic)
[4]; UTBLP + niclosamide
  Interpretation: Synergy (FICI ≤ 0.5 is synergistic)
[4]; UTBLP + novobiocin
  Interpretation: Synergy (FICI ≤ 0.5 is synergistic)
[4]; UTBLP + rifampicin
  Interpretation: Synergy (FICI ≤ 0.5 is synergistic)
[4]; plate with chloramphenicol
  MICUTBLP: > 128 µg/mL
[4]; plate with niclosamide
  MICUTBLP: > 128 µg/mL
[4]; plate with novobiocin
  MICUTBLP: > 128 µg/mL
[4]; plate with rifampicin
  MICUTBLP: > 128 µg/mL
[4]; [18]
  MICUTBLP [MICcombo]: 32 µg/mL
[4]; [20]
  MICUTBLP [MICcombo]: 8 µg/mL
[4]; [21]
  MICUTBLP [MICcombo]: 8 µg/mL
[4]; [22]
  MICUTBLP [MICcombo]: 8 µg/mL
[4]; [19]
  MICantibiotic [MICcombo]: 1 µg/mL
[4]; [23]
  MICantibiotic [MICcombo]: 0.5 µg/mL
[4]; [24]
  MICantibiotic [MICcombo]: 0.25 µg/mL
[4]; [25]
  MICantibiotic [MICcombo]: 0.125 µg/mL
[5]
  MIC: >128 µg/mL
[6]
  MIC: > 128 µg/mL
[7]
  MIC: 64 µg/mL (≈ 77.6 µM)
[8]
  MIC: 128 µg/mL (≈ 155 µM)
[9]; UTBLP + novobiocin
  Interpretation: Synergy (FICI ≤ 0.5 is synergistic)
[9]; UTBLP + rifampicin
  Interpretation: Synergy (FICI ≤ 0.5 is synergistic)
[9]; plate with novobiocin
  MICUTBLP: 64 µg/mL
[9]; plate with rifampicin
  MICUTBLP: 64 µg/mL
[9]; [21]
  MICUTBLP [MICcombo]: 4 µg/mL
[9]; [22]
  MICUTBLP [MICcombo]: 4 µg/mL
[9]; [24]
  MICantibiotic [MICcombo]: 0.25 µg/mL
[9]; [25]
  MICantibiotic [MICcombo]: 0.125 µg/mL
[10]; UTBLP + chloramphenicol
  Interpretation: Additive (0.5 < x ≤ 4 is additive)
[10]; UTBLP + niclosamide
  Interpretation: Synergy (FICI ≤ 0.5 is synergistic)
[10]; UTBLP + novobiocin
  Interpretation: Synergy (FICI ≤ 0.5 is synergistic)
[10]; UTBLP + rifampicin
  Interpretation: Synergy (FICI ≤ 0.5 is synergistic)
[10]; plate with chloramphenicol
  MICUTBLP: > 128 µg/mL
[10]; plate with niclosamide
  MICUTBLP: > 128 µg/mL
[10]; plate with novobiocin
  MICUTBLP: > 128 µg/mL
[10]; plate with rifampicin
  MICUTBLP: > 128 µg/mL
[10]; [18]
  MICUTBLP [MICcombo]: 32 µg/mL
[10]; [20]
  MICUTBLP [MICcombo]: 8 µg/mL
[10]; [21]
  MICUTBLP [MICcombo]: 16 µg/mL
[10]; [22]
  MICUTBLP [MICcombo]: 8 µg/mL
[10]; [19]
  MICantibiotic [MICcombo]: 32 µg/mL
[10]; [23]
  MICantibiotic [MICcombo]: 0.5 µg/mL
[10]; [24]
  MICantibiotic [MICcombo]: 0.125 µg/mL
[10]; [25]
  MICantibiotic [MICcombo]: 0.125 µg/mL
[11]; UTBLP + novobiocin
  Interpretation: Synergy (FICI ≤ 0.5 is synergistic)
[11]; UTBLP + rifampicin
  Interpretation: Synergy (FICI ≤ 0.5 is synergistic)
[11]; plate with novobiocin
  MICUTBLP: 128 µg/mL
[11]; plate with rifampicin
  MICUTBLP: 128 µg/mL
[11]; [21]
  MICUTBLP [MICcombo]: 8 µg/mL
[11]; [22]
  MICUTBLP [MICcombo]: 8 µg/mL
[11]; [24]
  MICantibiotic [MICcombo]: 0.125 µg/mL
[11]; [25]
  MICantibiotic [MICcombo]: 0.063 µg/mL
[12]
  MIC: >128 µg/mL
[13]
  MIC: > 128 µg/mL
[14]
  MIC: > 128 µg/mL
[15]; UTBLP + chloramphenicol
  Interpretation: Additive (0.5 < x ≤ 4 is additive)
[15]; [17]
  MICUTBLP: 128 µg/mL
[15]; [18]
  MICUTBLP [MICcombo]: 0.25 µg/mL
[15]; [19]
  MICchloramphenicol [MICcombo]: 64 µg/mL
[16]; [17]
  MICUTBLP: 64 µg/mL
[16]; [18]
  MICUTBLP [MICcombo]: 0.25 µg/mL
[16]; [19]
  MICchloramphenicol [MICcombo]: 8 µg/mL
